{"source": "patent US10245255B2", "about": "“Compositions and methods for the treatment of obesity and related disorders” (THE REGENTS OF THE UNIVERSITY OF MICHIGAN, priority 2011, dated 2019)", "tested_on": "RAW264.7 cells", "experiment": "RAW264.7 cells stimulated with LPS or poly I:C: phosphorylation (immunoblot)", "type": "cell-based", "conditions": "for LPS or poly I:C-stimulated phosphorylation of IRF3: LPS 0.5 μg/ml or poly I:C 50 μg/ml; for phosphorylation of TBK1 on serine 172: LPS or poly I:C stimulated", "procedure": "3T3-L1 fibroblasts (American Type Culture Collection, Manassas, Va.) were cultured and differentiated using standard methods known in the art. […] 3T3-L1 adipocytes were serum starved with 0.5% fetal bovine serum (FBS) in Dulbecco's modified eagle medium (DMEM) prior to treatment. TNFα treatments (50 ng/mL unless otherwise noted) were performed during the 24 hour prior to harvest, after pretreatment with IKKβ inhibitor compound VIII (EMD Biosciences, Philadelphia, Pa.) for 1 hour where indicated. […] Cells were treated with or without 10 nM of insulin for 15 minutes. RAW264.7 cells were serum starved with 0.5% FBS DMEM media and pre-treated with or without Cay-10576 (Cayman Chemical, Ann Arbor, Mich.). The cells were then treated with LPS (0.5 μg/ml) or poly I:C (50 μg/ml) for 1 hour. Cells were harvested for total RNA and analyzed by real-time PCR Cell lysates were resolved on SDS-PAGE and analyzed by immunoblot using the indicated antibodies.", "note": "Entries after “also recorded” stand apart in the source; their conditions may differ.", "data": [{"compound": "COc1cc2ncn(-c3cc(OCc4ccccc4S(C)(=O)=O)c(C#N)s3)c2cc1OC", "note": "[Cay-10576]", "values": [{"measurement": "LPS or poly I:C-stimulated phosphorylation of IRF3", "value": "blocked"}, {"measurement": "LPS or poly I:C-stimulated phosphorylation of IRF3", "setting": "listed as cayman", "value": "reverses"}, {"measurement": "phosphorylation of TBK1 on serine 172", "value": "stimulated"}, {"measurement": "phosphorylation of TBK1 on serine 172", "setting": "listed as cayman", "value": "inducing"}, {"measurement": "IKKβ phosphorylation", "setting": "listed as cayman", "value": "increased; also recorded: inducing"}]}]}
